Where “and” joins values, the source holds several entries; their conditions need not be identical. Equal entries are not always repeated.

The test deals with 422866-222-R5-J1-PDC complex spheroid viability. Kind of test: Anticancer human tumor 422866-222-R5-J1-PDC patient-derived pancreatic adenocarcinoma cell line growth inhibition [POLQ]. To be noted: for viability, T/C: stronger effect = lower value. Here is the method: Multicellular complex tumor spheroid response to Polymerase (POL) inhibitors (novobiocin, ART-558, RP6685) in combination with a variety of drugs and investigational agents in selected tumor cell lines
The POL inhibitors (novobiocin, ART-558, and RP6685) were evaluated both individually and in combination with standard of care and investigational anticancer small molecules within a complex spheroid model of solid tumors. . Complex spheroids include a stromal component modeled by human endothelial cells (HUVEC) and fibroblasts modeled by human mesenchymal stem cells (MSCs). The concentration ranges selected for each drug and investigational agent were based upon clinically achievable concentrations if the clinical Cmax of the agent was known.
Compounds. The drugs and investigational agents: novobiocin (NSC847541), ART-558 (NSC835418), RP-6685 (NSC848927), peposertib (NSC802822), ceralasertib (NSC780249), elimusertib (NSC800525), camonsertib (NSC841442), AZD-1390 (NSC803789), olaparib (NSC753686), talazoparib (NSC767125), rucaparib (NSC756644), sotorasib (NSC818433), MRTX-1133 (NSC836407), SN-38 (NSC673596), topotecan (NSC609699), epotoside (NSC141540), doxorubicin (NSC123127), gemcitabine (NSC613327), 5-fluorouracil (NSC19893), paclitaxel (NSC125973), vemurafenib (NSC761431), MSA-2 (NSC828583), SN-011 (NSC837082), adavosertib (NSC754352), prexasertib (NSC758257), carboplatin (NSC241240) and oxaliplatin (NSC266046), were obtained from the National Cancer Institute (NCI) Developmental Therapeutics Program Chemical Repository (21). The FDA-approved anticancer drug set is available from the Developmental Therapeutics Program at https://dtp.cancer.gov/organization/dscb/obtaining/. […] The stock solutions were prepared in dimethyl sulfoxide (DMSO, Sigma-Aldrich, St. Louis, MO, cat. D2650), except for the platinum compounds which were prepared in saline (Quality Biological, Gaithersburg, MD, cat. 114-055-101), at 800-fold the tested concentration and stored at -70 degrees C prior to their use. All drugs and investigational agents were tested over a range starting from a high concentration at or near the clinical Cmax and decreasing in half-log increments. If the clinical Cmax for an agent had not been determined, the highest concentration tested was 10 microM, except for SN-38, which was tested at a high concentration of 1 microM.
Cell Culture. All cells were maintained in an incubator at 37 degrees C and 5% CO2 with 95% humidity. The PDC lines were cultured according to standard operating procedures established by the NCI PDMR (https://pdmr.cancer.gov). Table 3 of the manuscript, lists the cell lines along with the number of the three cell types plated to form the mct-spheroids and media for tumor cell growth. After thawing, all PDC lines, except 997537-175-T-J1-PDC and 415267-285-R-J2-PDC, were cultured in Matrigel-coated flasks prepared with a working solution of 1X Ham's F-12 nutrient mix, without supplementation (Thermo Fisher Scientific, cat. 11765054), 100 U/mL penicillin-streptomycin (Thermo Fisher Scientific, cat. 15140122), and 2.5% Matrigel (Corning Inc., Corning, NY, cat. 354248) for the first three passages. The two PDC lines 997537-175-T-J1-PDC and 415267-285-R-J2-PDC were cultured on uncoated flasks. The 857933-349-R-J2-PDC line was cultured in 6C/Colon 1B media containing advanced DMEM/F-12 (Thermo Fisher Scientific, cat. 12634028), 10 mM HEPES (Thermo Fisher Scientific, cat. 15630080), 1X GlutaMAX supplement (Thermo Fisher Scientific, cat. 35050061), 0.1 mg/mL primocin (InvivoGen, San Diego, CA, cat. ant-pm-2), 10% defined fetal bovine serum, heat inactivated (HyClone Laboratories Inc., Logan, UT, cat. SH30070.03HI), 50% L-WRN conditioned media (ATCC, cat. CRL-3276), 1.25 mM N-Acetyl-L-cysteine (Sigma-Aldrich, cat. A9165), 10 mM nicotinamide (Sigma-Aldrich, cat. N0636), 1X B-27 supplement (Thermo Fisher Scientific, cat. 17504044), 1X N-2 supplement (Thermo Fisher Scientific, cat. […]
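Also: spheroids exposed to compounds for one week before readout.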
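For viability, T/C in this document: percent of DMSO vehicle wells luminescence so 100% = untreated viability.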

`COc1cc(C2c3cc4c(cc3C(OC3OC5COC(C)OC5C(O)C3O)C3COC(=O)C23)OCO4)cc(OC)c1O` (stereo not drawn): the viability, T/C was 90.2% and 97.7% and 97.4% (compound 0.0316 µM); 95% and 86.7% and 97.1% (compound 0.1 µM); 79.5% and 59.3% and 73.2% (compound 0.316 µM); 54.9% and 45.2% and 52.5% (compound 1 µM); 37% and 39.4% and 37.1% (compound 3.16 µM); 33.3% and 33.2% and 28.4% (compound 10 µM). Also, under “curve of compound”, the half-maximal inhibitory concentration (IC50) is 1.34 µM and 0.667 µM and 1.15 µM.
In the case of `CC1COCCN1c1cc(-c2ccnn2C)c2ccnc(-c3ccn[nH]3)c2n1` (stereo not drawn), the viability, T/C is, setting by setting: (compound 0.0316 µM) 76.8% and 96.8% and 97.8%; (compound 0.1 µM) 61.1% and 55.4% and 46.2%; (compound 0.316 µM) 38.6% and 42.8% and 35.1%; (compound 1 µM) 44.4% and 36.6% and 37.6%; (compound 3.16 µM) 80.4% and 81.7% and 64%; (compound 10 µM) 69.2% and 80.5% and 68.2%. Further, under “curve of compound”, the concentration for half-maximal inhibition (IC50) is > 10 µM and 10 µM.
Regarding `C=CC(=O)N1CCN(c2nc(=O)n(-c3c(C)ccnc3C(C)C)c3nc(-c4c(O)cccc4F)c(F)cc23)C(C)C1` (stereo not drawn), the viability, T/C is 30.6% and 30.5% and 34.5% (compound 0.0316 µM); 23.7% and 28.7% and 31.4% (compound 0.1 µM); 24.4% and 29.1% and 24.3% (compound 0.316 µM); 23.3% and 29.6% and 26.2% (compound 1 µM); 25.1% and 22.9% and 26.6% (compound 3.16 µM); 28.1% and 23.5% and 24.2% (compound 10 µM). Besides, the IC50 (curve of compound) was less than 0.0316 µM.
Take `COc1ccc([C@@H](O)c2cc(-c3ncnc4cc(N5CCOCC5)ccc34)c(F)cc2Cl)nn1` + Nc1ccc(C#CCN(C(=O)Cc2ncc(C(F)(F)F)cc2C(F)(F)F)c2ccc(F)cc2)nn1: the 50% inhibitory concentration (IC50) (curve of first compound, second compound 0.0316 µM) was 1.51 µM; the IC50 (curve of first compound, second compound 0.1 µM) is 2.57 µM; the half-maximal inhibitory concentration (IC50) (curve of first compound, second compound 0.316 µM) was determined as 2.74 µM; the 50% inhibitory concentration (IC50) (curve of first compound, second compound 1 µM) was 1.93 µM; the concentration for half-maximal inhibition (IC50) (curve of first compound, second compound 3.16 µM) came out at 1.28 µM; the 50% inhibitory concentration (IC50) (curve of first compound, second compound 10 µM) is 1.59 µM. Besides, the viability, T/C is 81.2% (second compound 0.0316 µM, first compound 0.0316 µM); 89.7% (second compound 0.0316 µM, first compound 0.1 µM); 70.9% (second compound 0.0316 µM, first compound 0.316 µM); 55.3% (second compound 0.0316 µM, first compound 1 µM); 42.4% (second compound 0.0316 µM, first compound 3.16 µM); 34.8% (second compound 0.0316 µM, first compound 10 µM). Also, the viability, T/C runs as follows: (second compound 0.1 µM, first compound 0.0316 µM) 104%; (second compound 0.1 µM, first compound 0.1 µM) 81.8%; (second compound 0.1 µM, first compound 0.316 µM) 75.1%; (second compound 0.1 µM, first compound 1 µM) 59.8%; (second compound 0.1 µM, first compound 3.16 µM) 46.2%; (second compound 0.1 µM, first compound 10 µM) 39.2%. Moreover, the viability, T/C (second compound 0.316 µM, first compound 0.0316 µM) was found to be 110%; the viability, T/C (second compound 0.316 µM, first compound 0.1 µM) came out at 88.5%; the viability, T/C (second compound 0.316 µM, first compound 0.316 µM) was 73.1%; the viability, T/C (second compound 0.316 µM, first compound 1 µM) is 70.6%; the viability, T/C (second compound 0.316 µM, first compound 3.16 µM) worked out at 46.2%; the viability, T/C (second compound 0.316 µM, first compound 10 µM) is 33.1%. In addition, the viability, T/C was 94.2% (second compound 1 µM, first compound 0.0316 µM); 87.4% (second compound 1 µM, first compound 0.1 µM); 79.8% (second compound 1 µM, first compound 0.316 µM); 62.6% (second compound 1 µM, first compound 1 µM); 40.2% (second compound 1 µM, first compound 3.16 µM); 29.4% (second compound 1 µM, first compound 10 µM). Besides, the viability, T/C (second compound 3.16 µM, first compound 0.0316 µM) turned out to be 95.9%; the viability, T/C (second compound 3.16 µM, first compound 0.1 µM) was found to be 89.9%; the viability, T/C (second compound 3.16 µM, first compound 0.316 µM) was determined as 72.9%; the viability, T/C (second compound 3.16 µM, first compound 1 µM) amounted to 49.1%; the viability, T/C (second compound 3.16 µM, first compound 3.16 µM) is 47.6%; the viability, T/C (second compound 3.16 µM, first compound 10 µM) was found to be 34.6%. Besides, the viability, T/C (second compound 10 µM, first compound 0.0316 µM) was 110%; the viability, T/C (second compound 10 µM, first compound 0.1 µM) turned out to be 100%; the viability, T/C (second compound 10 µM, first compound 0.316 µM) amounted to 82.5%; the viability, T/C (second compound 10 µM, first compound 1 µM) is 60.3%; the viability, T/C (second compound 10 µM, first compound 3.16 µM) is 35.1%; the viability, T/C (second compound 10 µM, first compound 10 µM) amounted to 31.4%.
As for `Cc1cccc(N(C)C(=O)C2C(O)CCN2c2nc(C)cc(C(F)(F)F)c2C#N)c1` (stereo not drawn), the viability, T/C runs as follows: (compound 0.1 µM) 93.7% [middle of 13 runs]; (compound 0.316 µM) 94.8% [middle of 13 runs]; (compound 10 µM) 99.8% [middle of 13 runs]. Also, the IC50 was greater than 10 µM (compound alone, run of 11/27/2023) and greater than 10 µM (compound alone, run of 12/05/2023).

One may read the viability, T/C as the ratio of treated to control. As a reminder, the IC50 is the concentration that inhibits the measured activity by half.
